Activity calls are given as the source filed them. The calls are words filed in the database; no cut-off is given here.
Legend:
Type in all cases: functional, organism-based
Leishmania infantum [1] = test: Antiparasitic activity against promastigotes of Leishmania infantum MHOM-TN-80-IPT1 assessed as decrease in parasite density up to 3 mM measured at 4th and 7th day by microscopic analysis
Leishmania infantum [2] = test: Antiparasitic activity against promastigotes of Leishmania infantum MHOM-TN-80-IPT1 assessed as decrease in parasite density at 1 to 5 mM measured at 4th day by microscopic analysis
Leishmania infantum [3] = test: Antiparasitic activity against promastigotes of Leishmania infantum MHOM-TN-80-IPT1 assessed as decrease in parasite vitality at 1 to 5 mM measured at 4th day by microscopic analysis
Leishmania infantum [4] = test: Increase in vitality of Leishmania infantum MHOM-TN-80-IPT1 promastigotes at 1 to 5 mM measured at 7th day by microscopic analysis
Leishmania infantum [5] = test: Increase in density of Leishmania infantum MHOM-TN-80-IPT1 promastigotes at 1 to 5 mM measured at 7th day by microscopic analysis
Leishmania infantum [6] = test: Antiparasitic activity against promastigotes of Leishmania infantum MHOM-TN-80-IPT1 assessed as decrease in promastigote vitality at 5 mM by counting chamber
Leishmania infantum [7] = test: Antiparasitic activity against promastigotes of Leishmania infantum MHOM-TN-80-IPT1 assessed as decrease in parasite density at 1 to 5 mM measured at 4th and 7th day by microscopic analysis

| SMILES | inhibition (Leishmania infantum [1]) | inhibition (Leishmania infantum [2]) | inhibition (Leishmania infantum [3]) | Activity (Leishmania infantum [4]) | Activity (Leishmania infantum [5]) | inhibition (Leishmania infantum [6]) | inhibition (Leishmania infantum [7]) |
| --- | --- | --- | --- | --- | --- | --- | --- |
| NCCCNCCCC=O | Active |  |  |  |  |  |  |
| NCCCCC=O |  | Active | Active | Active | Active |  |  |
| O=CCCNCCCCNCCC=O |  |  |  |  |  | Active | Active |
| NCCCC=O |  | Active | Active | Active | Active |  |  |

— ChEMBL document CHEMBL3045587, “Oxidation of di- and polyamines: in vitro effect of amino aldehydes on the vitality of Leishmania promastigotes” (Med Chem Res, 2010)
